This is an account of results in patent US11542316B2, “S-Arrestin peptides and therapeutic uses thereof” (APITOPE INTERNATIONAL NV, priority 2017, dated 2023).

“Also recorded” adds a separate entry of the source. Ends that are not written are not given here.

A short description of one series: Solubility of peptides. Type of series: physicochemical. The procedure: The solubility of potential apitopes from S—Ag are determined by visual observations and turbidity measurement by UV spectrophotometry at 280 nm. The solubility of the peptides can be modified by adding amino acids ‘GKK’ or ‘KKK’ (or similar) on both the C- and N-terminus of the sequence. Modifications that may be suitable are described in WO2014/072958 (which is hereby incorporated by reference).
For some of these peptides, the parental peptides were insoluble, and solubility is a critical parameter for them to work as a tolerogenic peptide. Several end-terminal modifications can be used and as example used here they were improved by addition of 3 lysines before and after the original peptide sequence (labelled as ‘-KKK’ versions).

The target in series [1] is T1, MHC II molecules present on dendritic cells (DC) (Homo sapiens, UniProt P01903+P01911, A100K/A102G/A103R/F55Y/I96L/K41T/P40S/Q125H/Q178H/Q39Y/R42S/S66N/T106N/T262R/W38E/Y61H).
T1 construct: from tissue; host or cells: CD11c+ dendritic cells from spleens of DR3tg mice (genomic HLA-DRA and DRB1*0301 transgenes, no mouse MHC class II)
Description: In vivo presentation experiment, DR3tg mice. To be noted: 100 μg peptide s.c., CD11c+ cells harvested after 2 hours, co-culture 48 hours. An excerpt: FIG. 14: In vivo presentation protocol. Mice are immunized with peptide/CFA and a T cell line is established. For this, ten days after immunization the LN and spleens are harvested and cultured with different concentrations of peptide; 2×10^6 cells/ml APC+1×10^6 cells/ml CD4^+ cells per well. At day 7 the cells are re-stimulated with fresh APC and the same concentrations of peptide. After 14 to 21 days, CD4^+ cells are isolated from these cultures by magnetic bead isolation. These CD4^+ cells are co-cultured with CD11c^+ (dendritic) cells isolated by magnetic bead isolation from spleens of mice s.c. injected with peptide 2 hours before. Control mice receive a s.c. injection of PBS. After 48 hours, supernatant is collected and cytokine response (IFN-γ) is measured. LN, lymph nodes; APC, Antigen presenting cell; s.c. subcutaneous.
FIG. 15: In vivo presentation of HIP-115 nested peptides in DR3 mice. DR3 mice were immunized with HIP-115/CFA and a T cell line was established. For this, ten days after immunization the LN and spleens were harvested and cultured with different concentrations of peptide (0.1-1-2.5 and 5 μg/ml); 2×10^6 cells/ml APC+1×10^6 cells/ml CD4^+ cells per well. At day 7 the cells were re-stimulated with fresh APC and the same concentrations of peptide. After 14 days, CD4^+ cells were isolated from these cultures by magnetic bead isolation. These CD4^+ cells were co-cultured with CD11c (dendritic) cells isolated by magnetic bead isolation from spleens of DR3 mice s.c. injected with peptides HIP-115NE3, HIP-115NE3-KKK or PBS 2 hours before. After 48 hours, supernatant was collected and IFN-γ production was measured by ELISA. Data are presented as the mean IFN-γ concentration±SEM (One-way ANOVA with Dunn's multiple comparison, * p<0.05, ** p<0.01). LN, lymph nodes; APC, Antigen presenting cell; s.c. subcutaneous.
FIG. 16: In vivo presentation of HIP-24 nested peptides in DR3 mice. DR3 mice were immunized with HIP-241125+HIP-24DG/CFA and a T cell line was established. For this, ten days after immunization the LN and spleens were harvested and cultured with different concentrations of peptide (0.3-1.2-3 and 6 μg/ml); 2×10^6 cells/ml APC+1×10^6 cells/ml CD4^+ cells per well. At day 7 the cells were re-stimulated with fresh APC and the same concentrations of peptide. After 14 days, CD4^+ cells were isolated from these cultures by magnetic bead isolation. […] After 48 hours, supernatant was collected and IFN-γ production was measured by ELISA. […]
FIG. 18: In vivo presentation of HIP-17GN nested peptides in DR3 mice. […] After 48 hours, supernatant was collected and IFN-γ production was measured by ELISA. […]

T1 sequence (P01903 26-254): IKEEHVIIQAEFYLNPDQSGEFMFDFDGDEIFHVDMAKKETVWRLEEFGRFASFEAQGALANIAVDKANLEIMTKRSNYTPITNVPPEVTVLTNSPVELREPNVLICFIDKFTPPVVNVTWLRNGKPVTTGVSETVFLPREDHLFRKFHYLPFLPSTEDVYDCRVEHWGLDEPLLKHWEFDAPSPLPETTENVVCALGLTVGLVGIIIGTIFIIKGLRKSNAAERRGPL
T1 sequence (P01911 30-266 with the stated changes): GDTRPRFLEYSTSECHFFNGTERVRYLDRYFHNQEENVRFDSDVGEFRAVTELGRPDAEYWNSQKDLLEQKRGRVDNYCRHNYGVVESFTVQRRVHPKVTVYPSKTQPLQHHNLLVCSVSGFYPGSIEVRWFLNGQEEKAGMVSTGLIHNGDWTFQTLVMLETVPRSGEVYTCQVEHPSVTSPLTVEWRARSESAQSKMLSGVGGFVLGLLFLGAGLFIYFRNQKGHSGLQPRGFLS

For the substance “LTKTLTLLPLLANNRERR-NH2 [HIP-24DG, LTKTLTLLPLLANNRERR]”, in “Solubility of peptides”, the solubility entry is “soluble”.

With “VIFKKISRDKSVTIYLG-NH2 [HIP-115NE3, VIFKKISRDKSVTIYLG]”, the “picked up and presented by MHC II on dendritic cells to peptide-specific T cells (IFN-γ production)” value (shortened to “picked up and presented by MHC II”) in series [1] is “not able to cause this activation”. In “Solubility of peptides”, the solubility result is “insoluble”.

Take KKKLTFRRDLYFSRVQVYKKK-NH2 [HIP-17J-KKK]: the “picked up and presented by MHC II” value in series [1] was “presented by DC to T cells; also recorded: A certain degree of activation”.

In the case of “LPLLANNRERRGIA-NH2 [HIP-24HM3, LPLLANNRERRGIA]”, the “picked up and presented by MHC II” value in series [1] is recorded as “presented by DC to T cells”. Moreover, the solubility entry in the series “Solubility of peptides” is “soluble”.

On to “KKKVIFKKISRDKSVTIYLGKKK-NH2 [HIP-115NE3-KKK]”, for which the “picked up and presented by MHC II” value in series [1] is “bound to the MHC II on DC in situ and presented to peptide-specific T cells”. For the same substance, the solubility result in the series “Solubility of peptides” is recorded as “soluble”.

“KKKAFVEQVANVVLKKK-NH2 [HIP-9K1-KKK, KKKAFVEQVANVVLKKK]”: the solubility entry in “Solubility of peptides” is “soluble”.
